# According to patent publication US11981661B2, “Heterocyclic compounds” (Hoffmann-La Roche Inc., priority 2020, dated 2024):
# Molecular target: T1, MAGL (Homo sapiens, UniProt Q99685)
# T1 sequence (Q99685 1-303): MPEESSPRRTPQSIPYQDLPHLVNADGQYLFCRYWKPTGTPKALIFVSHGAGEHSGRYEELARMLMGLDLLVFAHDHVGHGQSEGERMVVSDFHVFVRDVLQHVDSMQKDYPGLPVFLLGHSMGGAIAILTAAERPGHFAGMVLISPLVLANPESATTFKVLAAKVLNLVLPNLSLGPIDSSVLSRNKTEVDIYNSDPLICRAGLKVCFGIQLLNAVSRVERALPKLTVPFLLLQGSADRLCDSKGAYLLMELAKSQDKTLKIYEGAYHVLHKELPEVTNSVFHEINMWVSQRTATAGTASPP
# Experiment: 2-AG assay (MAGL inhibitory activity, hydrolysis of 2-arachidonoylglycerol followed by mass spectrometry)
# Type: biochemical
# Settings: 50 pM MAGL, 8 μM 2-arachidonoylglycerol, 15 min preincubation, 30 min incubation at RT, concentration range 12.5 μM to 0.8 pM
# In short: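 Activity derived from the arachidonic acid/d8-arachidonic acid MS intensity ratio after acetonitrile quench. Reaction: 8 μM 2-AG substrate with 50 pM MAGL, 30 min at RT, following 15 min RT compound preincubation; buffer 50 mM TRIS, 1 mM EDTA, 0.01% Tween; final compound range 12.5 μM to 0.8 pM.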
row,Compound,IC50 [nM]
1,"CC1(O)CN(c2ccc(C3CN(C(=O)CC[C@@H]4COC(=O)N4)C3)cn2)C1 [Example 160, (4R)-4-[3-[3-[6-(3-Hydroxy-3-methyl-azetidin-1-yl)-3-pyridyl]azetidin-1-yl]-3-oxo-propyl]oxazolidin-2-one]",1330
2,"O=C1N[C@H](CCC(=O)N2CC(c3ccc(C4CC(C(F)(F)F)C4)cc3)C2)CO1 (stereo partly drawn) [Example 133, (4R)-4-[3-Oxo-3-[3-[4-[3-(trifluoro-methyl)cyclobutyl]phenyl]azetidin-1-yl]propyl]oxazolidin-2-one]",2
3,"O=C1N[C@H](CCC(=O)N2CC3(CCC(Cc4ccc(C(F)(F)F)nc4)C3)C2)CO1 (single isomer, unassigned) [Example 210, (−)- or (+)-(4R)-4-[3-Oxo-3-[6-[[6-(trifluoromethyl)-3-pyridyl]methyl]-2-azaspiro[3.4]octan-2-yl]propyl]oxazolidin-2-one]",59
4,"O=C(NCCc1cnn[nH]1)N1CC(OCc2ccc(C(F)(F)F)cc2F)C1 [Example 64, 3-[[2-Fluoro-4-(trifluoromethyl)phenyl]methoxy]-N-[2-(1H-triazol-5-yl)ethyl]azetidine-1-carboxamide]",93
5,"O=C1N[C@H](CCC(=O)N2CC3(CCN(Cc4ccc(S(=O)(=O)C(F)(F)F)cc4)CC3)C2)CO1 [Example 194, (4R)-4-[3-Oxo-3-[7-[[4-(trifluoro-methylsulfonyl)phenyl]methyl]-2,7-diazaspiro[3.5]nonan-2-yl]propyl] oxazolidin-2-one]",61
6,"O=C1N[C@H](CCC(=O)N2CC3(CCC(Cc4ccc(C(F)(F)F)nc4)CC3)C2)CO1 [Example 188, (4R)-4-[3-Oxo-3-[7-[[6-(trifluoro-methyl)-3-pyridyl]methyl]-2-azaspiro[3.5]nonan-2-yI]propyl] oxazolidin-2-one]",25
7,"O=C1CCC(CCC(=O)N2CC(c3ccc(CC(F)(F)F)cc3)C2)N1 (single isomer, unassigned) [Example 7, (−)- or (+)-5-[3-Oxo-3-[3-[4-(2,2,2-trifluoroethyl)phenyl]azetidin-1-yl]propyl]pyrrolidin-2-one]",2580
8,"N#CCS(=O)(=O)c1ccc(C2CN(C(=O)CC[C@@H]3COC(=O)N3)C2)cc1 [Example 75, 2-[4-[1-[3-[(4R)-2-Oxooxazolidin-4-yl]propanoyl]azetidin-3-yl]phenyl]sulfonyl-acetonitrile]",57
9,"O=C1N[C@H](CCC(=O)N2CC(c3ccc([C@H]4CC[C@H](C(F)(F)F)CC4)nc3)C2)CO1 (single isomer, unassigned) [Example 201]",9
10,"CC1(CCC(=O)N2CC(OCc3ccc(C(F)(F)F)cc3F)C2)CCC(=O)N1 (single isomer, unassigned) [Example 13, (−)- or (+)-5-[3-[3-[[2-Fluoro-4-(trifluoromethyl)phenyl]methoxy]azetidin-1-yl]-3-oxo-propyl]-5-methyl-pyrrolidin-2-one]",≥ 12500
11,"O=C(CCc1cccc(=O)[nH]1)N1CC(OCc2ccc(C(F)(F)F)cc2F)C1 [Example 48, 6-[3-[3-[[2-Fluoro-4-(trifluoromethyl)phenyl]methoxy]azetidin-1-yl]-3-oxo-propyl]-1H-pyridin-2-one]",598
12,"O=C1N[C@H](CCC(=O)N2CC(c3ccc(N4CC(C(F)(F)F)C4)nc3)C2)CO1 [Example 161, (4R)-4-[3-Oxo-3-[3-[6-[3-(trifluoro-methyl)azetidin-1-yl]-3-pyridyl]azetidin-1-yl]propyl]oxazolidin-2-one]",65
13,"O=C1CCC(CCC(=O)N2CC(OCc3ccc(C(F)(F)F)cc3F)C2)N1 (single isomer, unassigned; (-)) [Example 1, (−)-5-[3-[3-[[2-Fluoro-4-(trifluoromethyl)phenyl]methoxy]azetidin-1-yl]-3-oxo-propyl]pyrrolidin-2-one]",3960
14,"O=C1N[C@H](CCC(=O)N2CC3(CC(Oc4ccc(F)cc4Cl)C3)C2)CO1 [Example 29, (4R)-4-[3-[6-(2-Chloro-4-fluoro-phenoxy)-2-azaspiro[3.3]heptan-2-yl]-3-oxo-propyl]oxazolidin-2-one]",6
15,"O=C1N[C@H](CCC(=O)N2CC3(C2)CN(S(=O)(=O)c2ccccc2OC(F)(F)F)C3)CO1 [Example 148, (4R)-4-[3-Oxo-3-[2-[2-(trifluoro-methoxy)phenyl]sulfonyl-2,6-diazaspiro[3.3]heptan-6-yl]propyl]oxazolidin-2-one]",498
16,"N#CC1(c2ccc(C3CN(C(=O)CC[C@@H]4COC(=O)N4)C3)cn2)CCC1 [Example 78, 1-[5-[1-[3-[(4R)-2-Oxooxazolidin-4-yl]propanoyl]azetidin-3-yl]-2-pyridyl]cyclobutane-carbonitrile]",981

row,Compound,IC50 [nM]
1,"O=C1N[C@H](CCC(=O)N2CC3(CC(Cc4ccc(F)cc4F)C3)C2)CO1 [Example 27, (4R)-4-[3-[6-[(2,4-Difluorophenyl)methyl]-2-azaspiro[3.3]heptan-2-yl]-3-oxo-propyl]oxazolidin-2-one]",0.5
2,"O=C1N[C@H](CCC(=O)N2CC3(CCC(Oc4ccc(C(F)(F)F)nn4)CC3)C2)CO1 [Example 136, (4R)-4-[3-Oxo-3-[7-[6-(trifluoro-methyl)pyridazin-3-yl]oxy-2-azaspiro[3.5]nonan-2-yl]propyl] oxazolidin-2-one]",22
3,"CN(c1ccccc1)c1ccc(C2CN(C(=O)CC[C@@H]3COC(=O)N3)C2)cc1 [Example 71, (4R)-4-[3-[3-[4-(N-Methylanilino)phenyl]azetidin-1-yl]-3-oxo-propyl]oxazolidin-2-one]",1
4,"O=C(CC(O)Cc1cnn[nH]1)N1CC(c2ccc(C3(C(F)(F)F)CC3)cc2)C1 (centres unmarked) [Example 69, 3-Hydroxy-4-(1H-triazol-5-yl)-1-[3-[4-[1-(trifluoromethyl)cyclopropyl]phenyl]azetidin-1-yl]butan-1-one]",122
5,"O=C1CCCC(CCC(=O)N2CC(OCc3ccc(C(F)(F)F)cc3F)C2)N1 (centres unmarked) [Example 49, 6-[3-[3-[[2-Fluoro-4-(trifluoromethyl)phenyl]methoxy]azetidin-1-yl]-3-oxo-propyl]piperidin-2-one]",605
6,"O=C1N[C@H](CCC(=O)N2CC(c3cnc(N4CCC(C(F)(F)F)C4)nc3)C2)CO1 (stereo partly drawn) [Example 107, (4R)-[3-Oxo-3-[3-[2-[3-(trifluoro-methyl)pyrrolidin-1-yl]pyrimidin-5-yl]azetidin-1-yl]propyl]oxazolidin-2-one]",216
7,"O=C1N[C@H](CCC(=O)N2CC(c3ccc(N4CCC(C(F)(F)F)C4)c(F)c3)C2)CO1 (stereo partly drawn) [Example 129, (4R)-4-[3-[3-[3-Fluoro-4-[3-(trifluoromethyl)pyrrolidin-1-yl]phenyl]azetidin-1-yl]-3-oxo-propyl]oxazolidin-2-one]",3
8,"O=C1N[C@H](CCC(=O)N2CC(c3ccc(N4CC(C(F)(F)F)C4)c(F)c3)C2)CO1 [Example 134, (4R)-4-[3-[3-[3-Fluoro-4-[3-(trifluoromethyl)azetidin-1-yl]phenyl]azetidin-1-yl]-3-oxo-propyl] oxazolidin-2-one]",16
9,"CS(=O)(=O)c1ccc(-c2ccc(C3CN(C(=O)CC[C@@H]4COC(=O)N4)C3)cc2)c(C(F)(F)F)c1 [Example 128, (4R)-4-[3-[3-[4-[4-Methyl-sulfonyl-2-(trifluoromethyl)phenyl]phenyl]azetidin-1-yl]-3-oxo-propyl] oxazolidin-2-one]",0.26
10,"O=C(CCc1cnn[nH]1)N1CC(c2ccc(C3(C(F)(F)F)CC3)cc2)C1 [Example 37, 3-(1H-1,2,3-Triazol-5-yl)-1-(3-(4-(1-(trifluoromethyl)cyclo-propyl)phenyl)azetidin-1-yl)propan-1-one]",339
11,"O=C1N[C@H](CCC(=O)N2CC3(CC(n4cnc(C5CC5)n4)C3)C2)CO1 [Example 185, (4R)-4-[3-[6-(3-Cyclopropyl-1,2,4-triazol-1-yl)-2-azaspiro [3.3]heptan-2-yl]-3-oxo-propyl] oxazolidin-2-one]",464
12,"O=C1N[C@H](CCC(=O)N2CC(c3ccc(C4(CO)CC4)cc3)C2)CO1 [Example 171, (4R)-4-[3-[3-[4-[1-(Hydroxy-methyl)cyclo-propyl]phenyl]azetidin-1-yl]-3-oxo-propyl] oxazolidin-2-one]",21
13,"CS(=O)(=O)c1cc(Cl)ccc1-c1ccc(C2CN(C(=O)CCC3CNC(=O)N3)C2)cc1 (single isomer, unassigned) [Example 217, (−)- or (+)-4-[3-[3-[4-(4-Chloro-2-methylsulfonyl-phenyl)phenyl]azetidin-1-yl]-3-oxo-propyl]imidazolidin-2-one]",33
14,"O=C1N[C@H](CCC(=O)N2CC3(C2)CN(S(=O)(=O)c2ccc(F)cc2C(F)(F)F)C3)CO1 [Example 97, (4R)-4-[3-[2-[4-Fluoro-2-(trifluoromethyl)phenyl]sulfonyl-2,6-diazaspiro[3.3]heptan-6-yl]-3-oxo-propyl] oxazolidin-2-one]",350
15,"O=C1N[C@H](CCC(=O)N2CC(c3ccc(-c4cnc(C(F)(F)F)cn4)cc3)C2)CO1 [Example 119, (4R)-4-[3-Oxo-3-[3-[4-[5-(trifluoromethyl)pyrazin-2-yl]phenyl]azetidin-1-yl]propyl] oxazolidin-2-one]",33
16,"CC1(CCC(=O)N2CC(c3ccc(Oc4cccc(Cl)c4)nc3)C2)CCC(=O)N1 (single isomer, unassigned) [Example 18, (+)- or (−)-5-[3-[3-[6-(3-Chlorophenoxy)-3-pyridyl]azetidin-1-yl]-3-oxo-propyl]-5-methyl-pyrrolidin-2-one]",2670
